# According to US7109012B2, “Recombinant lysophosphatidic acid phosphatase” (Azwell Inc., priority 1998, dated 2006):
# Legend:
# Format in all cases: biochemical
# bovine LPA phosphatase [1] = target: T1, bovine LPA phosphatase (Bos taurus, UniProt A6H757); experiment: Substrate specificity, free phosphate quantified by molybdate/ascorbic acid absorbance at 795 nm; conditions: 37° C., 15 minutes, pH 7.5
# T1 construct: from tissue; host or cells: bovine brain, cytosol fraction
# T1 sequence (A6H757 33-429): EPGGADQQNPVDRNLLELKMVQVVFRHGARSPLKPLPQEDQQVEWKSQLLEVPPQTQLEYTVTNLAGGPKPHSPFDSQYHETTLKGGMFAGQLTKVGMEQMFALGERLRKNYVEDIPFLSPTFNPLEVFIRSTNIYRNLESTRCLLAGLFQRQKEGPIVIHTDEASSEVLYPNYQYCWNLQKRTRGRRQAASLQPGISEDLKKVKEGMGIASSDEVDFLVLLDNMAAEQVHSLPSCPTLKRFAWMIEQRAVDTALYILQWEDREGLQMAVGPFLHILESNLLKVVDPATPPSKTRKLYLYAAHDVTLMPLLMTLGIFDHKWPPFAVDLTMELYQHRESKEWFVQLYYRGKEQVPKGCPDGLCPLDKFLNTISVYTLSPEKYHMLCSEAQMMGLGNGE
# Procedure: The activity for the LPA Phosphatase was determined in 50 μl of a reaction mixture [50 mM Tris-maleic acid (pH 7.5), 50 μM monooleoyl-[9,10-^3H]-lysophosphatidic acid (5×10^4 dpm), Triton™-X100 at 4-fold molar concentration of the substrate and enzymes at various concentrations]. The above mixture was incubated at 37° C. for 15 minutes, and the enzyme activity was determined by measuring the generated [^3H]monooleoylglycerol.
# Each of the enzyme reaction solutions containing various substrates was reacted in the same manner as in Test Example 1, and 25 μl of perchloric acid was added to terminate the reaction. Seventy-five microliters of […], 25 μl of 10% ammonium molybdate and 50 μl of 10% ascorbic acid were further added thereto. The mixed solution was boiled at 95° C. for 5 minutes, and thereafter the absorbance at 795 nm was determined to quantify free phosphate.
# [2] = target: T2, Recombinant LPA Phosphatase (Homo sapiens, UniProt Q9NPH0); experiment: Determination reagent (Reagent a / Reagent b), coupled enzymatic phosphate assay, absorbance at 570 nm; conditions: 5 minutes after Reagent b; for whether assayed by the determination reagent (change in absorbance at 570 nm): 0.2 mmol/l sample, 37° C.
# T2 construct: comprises a signal peptide consisting of 40 amino acid residues at N-terminal, and was a novel phosphatase having 421 amino acid residues; 6xHis; made in house; host or cells: E. coli JM109, vector pQE-30
# T2 sequence (Q9NPH0 48-428 limits assumed): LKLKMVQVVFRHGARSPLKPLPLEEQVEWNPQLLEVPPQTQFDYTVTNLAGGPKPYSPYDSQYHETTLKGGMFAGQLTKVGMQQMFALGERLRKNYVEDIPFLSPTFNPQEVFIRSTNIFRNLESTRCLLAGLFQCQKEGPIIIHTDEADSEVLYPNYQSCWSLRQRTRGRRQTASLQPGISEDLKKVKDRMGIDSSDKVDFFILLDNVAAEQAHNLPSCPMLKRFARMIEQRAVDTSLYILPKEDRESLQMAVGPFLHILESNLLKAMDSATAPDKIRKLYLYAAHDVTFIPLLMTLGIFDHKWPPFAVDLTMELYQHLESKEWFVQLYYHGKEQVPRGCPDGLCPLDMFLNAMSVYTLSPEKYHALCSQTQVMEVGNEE
# Procedure: The following determination reagents (Reagent a, Reagent b) were prepared.
# Each of the various LPAs such as 1-palmitoyl-LPA, 1-stearoyl-LPA, 1-oleoyl-LPA, 2-oleoyl-LPA, 1-linoleoyl-LPA and 1-arachidonoyl-LPA was dissolved in physiological saline containing a surfactant, to prepare a 0.2 mmol/l sample. Two-hundred and forty microliters of Reagent a was added to 8 μl of the sample, and the mixture was reacted at 37° C. for 5 minutes. Thereafter, 80 μl of Reagent b was added thereto, and the mixture was further reacted at 37° C. for 5 minutes. The change in the absorbance at a wavelength of 570 nm for 5 minutes after adding Reagent b was determined using reagent blank as a control.
# The absorbance dramatically increases after addition of reagent b, reaching a peak in several minutes. In addition, each of various phospholipids such as 1,2-dipalmitoylphosphatidic acid (1,2-dipalmitoyl-PA), 1-palmitoylphosphatidylethanolamine (1-palmitoyl-LPE), and 1-palmitoylphosphatidylcholine (1-palmitoyl-LPC) was dissolved in physiological saline containing a surfactant, to prepare a 0.2 mmol/l sample. The absorbance was determined by the same procedures.
# Further, the change in the absorbance was determined by the same procedures for each of commercially available control sera, 0.2 mM 1-oleoyl-LPA, and one prepared by adding 1-oleoyl-LPA to the commercially available control serum so as to be 0.2 mM. The determination accuracy (%) of LPA was calculated from each of the obtained changes in the absorbance by the following equation: […]
# bovine LPA phosphatase [3] = target: T1, bovine LPA phosphatase; experiment: Hydrolysis of [3H]1-oleoyl-LPA evaluated by TLC; conditions: 5 nmol substrate, enzyme 0-150 ng
# Procedure: The experiment for the specific activity and the reaction rate, and the like is performed by using the following separation method. Concretely, the above enzyme reaction product (50 μl of a mixture) was lyophilized, and monooleoylglycerol was added as a carrier. Thereafter, the mixture was analyzed by thin-layer chromatography (TLC) using a solvent system of n-butanol/acetic acid/water (30.4/4.8/4.8). The TLC plate was exposed to iodine steam, and spots of the monooleoylglycerol were scraped off, and the radioactivity was determined.
# Next, in order to confirm the reactivity with 1-oleoyl-LPA in detail, the enzyme reaction was carried out in the same manner as in Test Example 2 using [^3H]1-oleoyl-LPA (5 nmol, 1×10^5 dpm) as a substrate, and evaluated by TLC (FIG. 6).
# bovine LPA phosphatase [4] = target: T1, bovine LPA phosphatase; experiment: Reactivity with [32P]LPA or [32P]PA, radioactivity of the aqueous layer; conditions: enzyme 0-175 ng, substrate 0-100 μM
# From the text: FIG. 7 is a graph for evaluating the reactivity of bovine LPA phosphatase with [^32P]LPA or [^32P] PA, each being previously purified with TLC.
# In order to further confirm in detail the reactivity when 1-oleoyl-LPA and dioleoyl-PA were used as substrates, [^32P]LPA and [^32P]PA were used as substrates, which had been labeled by using [γ-^32P]ATP and E. coli DG kinase [Waggoner, D. W. et al., (1996) J. Biol. Chem. 271, 16506–16509], and purified with TLC previously. Each of the reactions was carried out by varying the enzyme amount (0–175 ng), or varying the concentration of the substrate (0–100 μM). The enzyme reaction was terminated with 100 μl of 0.1 N hydrochloric acid in methanol solution, and 200 μl of chloroform and 1 M magnesium chloride were each added. The mixture was vigorously mixed, and thereafter centrifuged at 1,000×g for 5 minutes. The radioactivity of 175 μl of the aqueous layer was determined to evaluate the enzyme reaction (FIG. 7).
Compound,hydrolysis by bovine LPA phosphatase (free phosphate) (bovine LPA phosphatase [1]),other results
"CCCCCCCCCCCCCCCC(=O)OC[C@@H](O)COP(=O)([O-])OCC[N+](C)(C)C [LPC, 1-palmitoylphosphatidylcholine]",,whether assayed by the determination reagent (change in absorbance at 570 nm) [2]: cannot substantially be done
"CCCCCCCCCCCCCCCC(=O)OC[C@H](COP(=O)(O)O)OC(=O)CCCCCCCCCCCCCCC [PA, 1,2-dipalmitoylphosphatidic acid]",,whether assayed by the determination reagent (change in absorbance at 570 nm) [2]: cannot substantially be done
"[3H]/C(CCCCCCCC)=C(\[3H])CCCCCCCC(=O)OC[C@@H](O)COP(=O)(O)O [[^3H]1-oleoyl-LPA, monooleoyl-[9,10-^3H]-lysophosphatidic acid]",,hydrolysis to [3H]1-oleoylglycerol (TLC) (bovine LPA phosphatase [3]): hydrolyzed
CCCCCCCCCCCCC/C=C/[C@@H](O)[C@@H](N)COP(=O)(O)O [sphingosine 1-phosphate],did not hydrolyze,
Lysophosphatidic acid [LPA],,reactivity of bovine LPA phosphatase with 32P-labelled substrate (bovine LPA phosphatase [4]): extremely high reactivity
phosphatidic acid,did not hydrolyze,

# Further lines, with some results ahead:
hydrolysis by bovine LPA phosphatase (free phosphate) (bovine LPA phosphatase [1]),Compound,other results
strongly hydrolyzed,"CCCCCCCC/C=C\CCCCCCCC(=O)OC[C@@H](O)COP(=O)(O)O [1-oleoyl-LPA, 1-oleoyl-lysophosphatidic acid]","Changes in Absorbance ([2]; 0.2 mmol/l, 570 nm): 0.0988"
did not hydrolyze,O=P(O)(O)OCC(O)CO (stereo not drawn) [glycerol phosphate],
did not hydrolyze,bisphosphatidic acid,
did not hydrolyze,cardiolipin,
did not hydrolyze,ceramide 1-phosphate,
